In patent US10077241B2 (Janssen Pharmaceutica NV, priority 2014, dated 2018):
Where a name gives a salt, the structure may show the parent alone.

Key:
[1] = target: T1, TGR5 (STC1 cell line) (Mus musculus, UniProt Q80SS6); experiment: STC1 cAMP Agonist EC50 Determination
T1 sequence (Q80SS6 1-329): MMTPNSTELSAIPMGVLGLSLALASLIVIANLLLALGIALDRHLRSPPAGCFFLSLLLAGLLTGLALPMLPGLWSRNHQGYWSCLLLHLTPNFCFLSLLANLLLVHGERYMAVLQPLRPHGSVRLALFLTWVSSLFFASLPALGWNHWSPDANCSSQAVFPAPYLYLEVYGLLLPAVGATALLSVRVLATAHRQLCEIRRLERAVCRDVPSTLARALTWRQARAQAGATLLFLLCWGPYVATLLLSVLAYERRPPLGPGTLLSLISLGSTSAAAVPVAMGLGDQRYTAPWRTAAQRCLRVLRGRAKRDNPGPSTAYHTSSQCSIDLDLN

[2] = target: T2, TGR5 (NCI-H716 cell line) (Homo sapiens, UniProt Q8TDU6); experiment: NCI-H716 cAMP Agonist EC50 Determination
T2 sequence (Q8TDU6 1-330): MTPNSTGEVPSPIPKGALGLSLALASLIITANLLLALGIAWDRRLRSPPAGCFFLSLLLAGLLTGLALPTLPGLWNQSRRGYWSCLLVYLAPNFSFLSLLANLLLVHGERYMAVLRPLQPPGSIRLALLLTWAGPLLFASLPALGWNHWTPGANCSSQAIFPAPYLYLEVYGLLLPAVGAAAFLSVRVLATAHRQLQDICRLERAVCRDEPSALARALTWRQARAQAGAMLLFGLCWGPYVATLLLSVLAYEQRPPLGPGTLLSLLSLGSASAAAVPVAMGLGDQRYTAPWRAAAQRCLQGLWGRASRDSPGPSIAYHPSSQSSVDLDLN

`COc1cc(C2(C)CCCc3nc(SCc4c(F)cncc4F)n(-c4ccc(F)cc4)c32)ccc1Cl` (centres unmarked) [Example 98, 2-((3,5-difluoropyridin-4-yl)methylthio)-7-(4-chloro-3-methoxyphenyl)-1-(4-fluorophenyl)-4,5,6,7-tetrahydro-7-methyl-1H-benzo[d]imidazole trifluoroacetic acid] was tested, and the EC50 [1] was 0.16 µM and the EC50 [2] was 24.3 µM.
`COc1cc(C2CCCc3nc(SCc4c(F)cc(CCC#N)cc4F)n(-c4ccc(F)cc4)c32)ccc1Cl` (centres unmarked) [Example 46, 3-(4-((7-(4-chloro-3-methoxyphenyl)-1-(4-fluorophenyl)-4,5,6,7-tetrahydro-1H-benzo[d]imidazol-2-ylthio)methyl)-3,5-difluorophenyl)propanenitrile trifluoroacetic acid] was tested, and the EC50 [1] was 0.14 µM and the EC50 [2] was > 50 µM.
In the case of `COc1cc(C2(C)CCCc3nc(SCc4c(F)ccc(O)c4F)n(-c4ccc(F)cc4)c32)ccc1Cl` (centres unmarked) [Example 95, 3-((7-(4-chloro-3-methoxyphenyl)-1-(4-fluorophenyl)-7-methyl-4,5,6,7-tetrahydro-1H-benzo[d]imidazol-2-ylthio)methyl)-2,4-difluorophenol trifluoroacetic acid], the EC50 [1] is reported as 0.37 µM and the EC50 [2] is reported as 12.5 µM.
With `COc1cc(C2CCCc3nc(SCc4c(F)cc(C(=O)NCC[N+](C)(C)C)cc4F)n(-c4ccc(F)cc4)c32)ccc1Cl` (centres unmarked) [Example 13, 2-(4-((7-(4-chloro-3-methoxyphenyl)-1-(4-fluorophenyl)-4,5,6,7-tetrahydro-1H-benzo[d]imidazol-2-ylthio)methyl)-3,5-difluorobenzamido)-N,N,N-trimethylethanaminium 2,2,2-trifluoroacetate] the EC50 [1] was 8.04 µM and the EC50 [2] was > 50 µM.
In the case of `COc1cc(C2(C=O)CCCc3nc(SCc4c(F)cccc4Cl)n(-c4ccc(F)cc4)c32)ccc1Cl` (centres unmarked) [Example 130, 4-(4-chloro-3-methoxyphenyl)-2-(2-chloro-6-fluorobenzylthio)-3-(4-fluorophenyl)-4,5,6,7-tetrahydro-3H-benzo[d]imidazole-4-carbaldehyde trifluoroacetic acid], the EC50 [1] is reported as 14.1 µM and the EC50 [2] is reported as > 50 µM.
With `COc1cc(C2(C)CCCc3nc(SCc4c(F)cc(C(=O)NCCO)cc4F)n(-c4ccc(F)cc4)c32)ccc1Cl` (centres unmarked) [Example 94, 4-((7-(4-chloro-3-methoxyphenyl)-1-(4-fluorophenyl)-7-methyl-4,5,6,7-tetrahydro-1H-benzo[d]imidazol-2-ylthio)methyl)-3,5-difluoro-N-(2-hydroxyethyl)benzamide trifluoroacetic acid] the EC50 [1] was 0.41 µM and the EC50 [2] was > 50 µM.
`COc1cc(C2CCCc3nc(SCc4c(F)cc(C#N)cc4F)n(-c4ccc(F)cc4)c32)ccc1Cl` (centres unmarked) [Example 36, 4-([[7-(4-chloro-3-methoxyphenyl)-1-(4-fluorophenyl)-4,5,6,7-tetrahydro-1H-1,3-benzodiazol-2-yl]sulfanyl]methyl)-3,5-difluorobenzonitrile] was tested, and the EC50 [1] was 1.34 µM and the EC50 [2] was > 50 µM.
In the case of `COc1cc(C2CCCc3nc(SCc4c(F)cccc4Cl)n(-c4cc(F)c(F)c(F)c4)c32)ccc1Cl` (centres unmarked) [Example 10, 7-(4-chloro-3-methoxyphenyl)-2-((2-chloro-6-fluorobenzyl)thio)-1-(3,4,5-trifluorophenyl)-4,5,6,7-tetrahydro-1H-benzo[d]imidazole], the EC50 [1] is reported as 0.79 µM and the EC50 [2] is reported as > 50 µM.
`COCCOCCOCCOCCNC(=O)c1cc(F)c(CSc2nc3c(n2-c2ccc(F)cc2)C(c2cc(OC)c(OC)cc2Br)CCC3)c(F)c1` (centres unmarked) [Example 68a, 4-(((7-(2-bromo-4,5-dimethoxyphenyl)-1-(4-fluorophenyl)-4,5,6,7-tetrahydro-1H-benzo[d]imidazol-2-yl)thio)methyl)-3,5-difluoro-N-(2,5,8,11-tetraoxatridecan-13-yl)benzamide] was tested, and the EC50 [1] was 7.39 µM and the EC50 [2] was 22 µM.
`COc1cc(C2(C)CCCc3nc(SCc4c(F)cc(C(=O)N5CCOCC5)cc4F)n(-c4ccc(F)cc4)c32)ccc1Cl` (centres unmarked) [Example 93, 7-(4-chloro-3-methoxyphenyl)-2-[([2,6-difluoro-4-[(morpholin-4-yl)carbonyl]phenyl]methyl)sulfanyl]-1-(4-fluorophenyl)-7-methyl-4,5,6,7-tetrahydro-1H-1,3-benzodiazole] was tested, and the EC50 [1] was 0.25 µM and the EC50 [2] was > 50 µM.
For `COc1cc(C2CCCc3nc(SCc4c(F)cc(OCCOCCOCCN(C)C)cc4F)n(-c4ccc(F)cc4)c32)ccc1Cl` (centres unmarked) [Example 33, 2-(2-(2-(4-((7-(4-chloro-3-methoxyphenyl)-1-(4-fluorophenyl)-4,5,6,7-tetrahydro-1H-benzo[d]imidazol-2-ylthio)methyl)-3,5-difluorophenoxy)ethoxy)ethoxy)-N,N-dimethylethanamine hydrochloride], the EC50 [1] was 4.9 µM and the EC50 [2] was > 50 µM.
For `COc1cc(C2CCCc3nc(SCc4c(F)cc(OCCOCCN(C)C)cc4F)n(-c4ccc(F)cc4)c32)ccc1Cl` (centres unmarked) [Example 34, (2-[2-[4-([[7-(4-chloro-3-methoxyphenyl)-1-(4-fluorophenyl)-4,5,6,7-tetrahydro-1H-1,3-benzodiazol-2-yl]sulfanyl]methyl)-3,5-difluorophenoxy]ethoxy]ethyl)dimethylamine hydrochloride], the EC50 [1] was 3.9 µM and the EC50 [2] was > 50 µM.
In the case of `COc1cc(C2(C)CCCc3nc(SCc4c(F)cc(-c5nn[nH]n5)cc4F)n(-c4ccc(F)cc4)c32)ccc1Cl` (centres unmarked) [Example 90, 7-(4-chloro-3-methoxyphenyl)-2-(2,6-difluoro-4-(2H-tetrazol-5-yl)benzylthio)-1-(4-fluorophenyl)-7-methyl-4,5,6,7-tetrahydro-1H-benzo[d]imidazole trifluoroacetic acid], the EC50 [1] is reported as 3.9 µM and the EC50 [2] is reported as > 50 µM.
For `COc1cc(C2(C)CCCc3nc(SCc4ccccc4)n(-c4ccc(F)cc4)c32)ccc1Cl` (centres unmarked) [Example 87, 2-(benzylsulfanyl)-7-(4-chloro-3-methoxyphenyl)-1-(4-fluorophenyl)-7-methyl-4,5,6,7-tetrahydro-1H-1,3-benzodiazole], the EC50 [1] was 47.8 µM and the EC50 [2] was > 50 µM.
`COc1cc(C2CCCc3nc(SCc4c(F)cccc4Cl)n(-c4cc(F)c(F)cc4F)c32)ccc1Cl` (centres unmarked) [Example 11, 7-(4-chloro-3-methoxyphenyl)-2-((2-chloro-6-fluorobenzyl)thio)-1-(2,4,5-trifluorophenyl)-4,5,6,7-tetrahydro-1H-benzo[d]imidazole] was tested, and the EC50 [1] was 3.71 µM and the EC50 [2] was > 50 µM.
With `COc1cc(C2CCCc3nc(SCc4c(F)cc(CCC(=O)O)cc4F)n(-c4ccc(F)cc4)c32)ccc1Cl` (centres unmarked) [Example 44, 3-(4-((7-(4-chloro-3-methoxyphenyl)-1-(4-fluorophenyl)-4,5,6,7-tetrahydro-1H-benzo[d]imidazol-2-ylthio)methyl)-3,5-difluorophenyl)propanoic acid trifluoroacetic acid] the EC50 [1] was 1.39 µM and the EC50 [2] was > 50 µM.
Compound `COc1cc(C2CCCc3nc(SCc4c(F)ccc(OCCN(C)C)c4F)n(-c4ccc(F)cc4)c32)ccc1Cl` (centres unmarked) [Example 31, [2-[3-([[17-(4-chloro-3-methoxyphenyl)-1-(4-fluorophenyl)-4,5,6,7-tetrahydro-1H-1,3-benzodiazol-2-yl]sulfanyl]methyl)-2,4-difluorophenoxy]ethyl]dimethylamine] has an EC50 [1] of 4.1 µM and an EC50 [2] of 4.44 µM.
`COc1ccc(C2(C)CCCc3nc(SCc4c(F)cc(C#N)cc4F)n(-c4ccc(F)cc4)c32)cc1OC` (centres unmarked) [Example 102, 4-(((7-(3,4-dimethoxyphenyl)-1-(4-fluorophenyl)-7-methyl-4,5,6,7-tetrahydro-1H-benzo[d]imidazol-2-yl)thio)methyl)-3,5-difluorobenzonitrile] gave an EC50 [1] of 0.03 µM and an EC50 [2] of 1.37 µM.
In the case of `COc1ccc(C2(C)CCCc3nc(SCc4c(F)cc(CCN5CCOCC5)cc4F)n(-c4ccc(F)cc4)c32)cc1OC` (centres unmarked) [Example 112, 4-(4-(((7-(3,4-dimethoxyphenyl)-1-(4-fluorophenyl)-7-methyl-4,5,6,7-tetrahydro-1H-benzo[d]imidazol-2-yl)thio)methyl)-3,5-difluorophenethyl)morpholine], the EC50 [1] is reported as 0.13 µM and the EC50 [2] is reported as 0.3 µM.
`CNC(=O)c1cc(F)c(CSc2nc3c(n2-c2ccc(F)cc2)C(C)(c2ccc(Cl)c(OC)c2)CCC3)c(F)c1` (centres unmarked) [Example 91, 4-((7-(4-chloro-3-methoxyphenyl)-1-(4-fluorophenyl)-7-methyl-4,5,6,7-tetrahydro-1H-benzo[d]imidazol-2-ylthio)methyl)-3,5-difluoro-N-methylbenzamide trifluoroacetic acid] was tested, and the EC50 [1] was 0.23 µM and the EC50 [2] was > 50 µM.
`COc1ccc(C2(C)CCCc3nc(SCc4c(F)cc(C(N)=O)cc4F)n(-c4ccc(F)cc4)c32)cc1OC` (centres unmarked) [Example 104, 4-(((7-(3,4-dimethoxyphenyl)-1-(4-fluorophenyl)-7-methyl-4,5,6,7-tetrahydro-1H-benzo[d]imidazol-2-yl)thio)methyl)-3,5-difluorobenzamide] was tested, and the EC50 [1] was 0.17 µM and the EC50 [2] was 0.9 µM.
In the case of `COc1cc(C2CCCc3nc(SCc4c(F)cc(CCCN/C(N)=N/C#N)cc4F)n(-c4ccc(F)cc4)c32)ccc1Cl` (centres unmarked) [Example 43, (E)-1-(3-(4-((7-(4-chloro-3-methoxyphenyl)-1-(4-fluorophenyl)-4,5,6,7-tetrahydro-1H-benzo[d]imidazol-2-ylthio)methyl)-3,5-difluorophenyl)propyl)-2-cyanoguanidine hydrochloride], the EC50 [1] is reported as 0.67 µM and the EC50 [2] is reported as > 50 µM.
